Results as given in patent US20260207600A1, “METHODS OF TREATMENT WITH MYOSIN MODULATOR” (MYOKARDIA, INC., priority 2019, published 2026).
Entries after “also recorded” stand apart in the source; their conditions may differ. Where two headings read alike, the source gives them in different places.

Tests used:
[1] = target: CYP2C19 (Homo sapiens, UniProt P33261); experiment: In vitro contribution of CYP enzymes to mavacamten metabolism; type: in vitro ADME
[2] = test system: conscious fully-instrumented dogs with normal cardiac function; experiment: Acute β-AR (dobutamine) challenge after mavacamten in conscious instrumented dogs; type: in vivo, dog
Procedure: In addition, the effects of MAVA (at 1.5 mg/kg PO, via gavage) on cardiac reserve were evaluated via acute β-AR challenges (dobutamime: 2, 5, and 10 ug/kg/min IV) in conscious fully-instrumented (LVPV group) dogs with normal cardiac function (n=8). These challenges were performed before/after dosing (+3-hour) in control- and MAVA-treated animals both under normal cardiac physiological conditions (n=4) and under (mild) concomitant cardio-depression induced via either selective β-AR blockade (+BB, metoprolol 0.5±0.1 mg/kg PO tid; n=4) or L-type Ca2+-channel blockade (+CCB, verapamil at 5±1 mg/kg PO tid; n=4); pharmacological blockades were established for 7 days prior to the MAVA treatment. Both peak and dose-responses were evaluated at steady state.
Throughout these experiments, analog signals were digitally acquired (1000 Hz) and recorded continuously with a data acquisition/analysis system (IOX; EMKA Technologies). Heart rate (HR), end-systolic (ESP) and end-diastolic pressures (EDP), as well as the peak rates of pressure rise/decline (dP/dtmax and dP/dtmin), the contractility index (CI: dP/dt/P at dP/dtmax), and the time-constant of myocardial relaxation (tau½, time for 50% decay from dP/dtmin) were derived from the LV pressure signal. Meanwhile, the end-systolic (ESV) and end-diastolic volumes (EDV) were measured from the LV volume signal derived from the implanted myocardial crystals. LV volumes were derived assuming a Teichholz model, and stroke volume (SV=EDV−ESV), ejection fraction (EF=SV/EDV), as well as cardiac output (CO=SV·HR) were calculated; in a subset of animals, SV and CO values were verified from data derived from the implanted aortic flow proble. […] The slopes of the preload-recruitable stroke work (PRSW; stroke work vs. EDV) and the end-systolic pressure-volume relationships (ESPVR; end-systolic elastance, Ees) were derived by software using linear models (IOX; EMKA Technologies), and were used as load-independent inotropic indices. Ventricular load was estimated by the effective arterial elastance (Ea=ESP/SV). […]

[3] = Half-life and clearance analysis from early clinical studies by CYP2C19 metabolizer phenotype; type: in vivo, human; details: for half-life / clearance: oral; for clearance: read-out: clearance rate
Procedure: The effect of CYP2C19 phenotype and genotype on the metabolism function of the CYP2C19 enzyme has been presently investigated. […] Specifically, normal metabolizers typically have a half-life of from about 6 to about 9 days, e.g., about 7 days (1 week), whereas poor metabolizers have a longer half-life, e.g., from about 12 to about 30 days, or often from about 16 to about 28 days based on current data in humans.
Half-life and clearance rate were analyzed after a single oral dose. Clearance rate was calculated as CL=Dose*F/AUCinf. […] Half-life and clearance rate were analyzed after the last dose upon reaching steady state. Clearance rate was calculated as CL,ss=Dose*F/AUC(0-T). Both trials were combined and analyzed by one-way ANOVA, followed by Tukey's multiple comparison test.
UM (rapid/ultra-rapid metabolizer) is *1/*17 or *17/*17; EM (extensive metabolizer) is *1/*1; IM (intermediate metabolizer) is *1/*2 or *17/*2; and PM (poor metabolizer) is *2/*2 or *2/*3.
Similar studies were performed for CYP3A5 and CYP2C9 polymorphisms.

[4] = target: CYP2C9 (Homo sapiens, UniProt P11712); experiment: In vitro contribution of CYP enzymes to mavacamten metabolism; type: in vitro ADME
[5] = human, in vivo, CYP2C19 normal metabolizers
[6] = human, in vivo, CYP2C19 poor metabolizers

Chain of CYP2C9 (P11712 whole entry): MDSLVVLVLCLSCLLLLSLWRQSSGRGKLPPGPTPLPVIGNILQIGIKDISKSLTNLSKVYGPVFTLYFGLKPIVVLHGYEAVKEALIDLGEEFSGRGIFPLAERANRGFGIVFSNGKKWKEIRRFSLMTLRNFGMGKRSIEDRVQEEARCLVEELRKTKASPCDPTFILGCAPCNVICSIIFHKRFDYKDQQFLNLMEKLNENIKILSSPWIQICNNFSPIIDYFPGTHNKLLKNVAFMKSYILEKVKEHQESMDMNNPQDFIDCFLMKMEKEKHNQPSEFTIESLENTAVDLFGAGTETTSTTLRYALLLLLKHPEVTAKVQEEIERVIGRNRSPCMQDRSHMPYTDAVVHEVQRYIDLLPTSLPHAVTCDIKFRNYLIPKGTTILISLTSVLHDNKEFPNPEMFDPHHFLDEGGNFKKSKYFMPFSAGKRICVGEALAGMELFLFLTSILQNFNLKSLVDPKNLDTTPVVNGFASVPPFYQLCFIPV
Chain of CYP2C19 (P33261 whole entry): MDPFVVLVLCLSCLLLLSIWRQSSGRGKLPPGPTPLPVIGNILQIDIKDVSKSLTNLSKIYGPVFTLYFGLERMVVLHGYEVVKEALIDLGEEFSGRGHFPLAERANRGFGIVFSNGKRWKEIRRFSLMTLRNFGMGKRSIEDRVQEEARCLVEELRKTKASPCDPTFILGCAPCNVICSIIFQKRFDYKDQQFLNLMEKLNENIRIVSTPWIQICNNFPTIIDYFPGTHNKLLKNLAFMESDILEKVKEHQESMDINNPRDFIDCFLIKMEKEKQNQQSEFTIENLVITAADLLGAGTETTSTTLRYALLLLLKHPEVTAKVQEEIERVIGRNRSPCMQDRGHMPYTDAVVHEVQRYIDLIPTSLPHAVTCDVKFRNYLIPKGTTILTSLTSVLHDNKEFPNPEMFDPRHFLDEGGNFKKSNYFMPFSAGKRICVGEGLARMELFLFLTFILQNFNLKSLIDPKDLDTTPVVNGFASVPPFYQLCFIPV

Structure (SMILES): CC(C)n1c(=O)cc(N[C@@H](C)c2ccccc2)[nH]c1=O [mavacamten, (S)-3-Isopropyl-6-((1-phenylethyl)amino)pyrimidine-2, 4(1H,3H)-dione]
- percent contribution to the metabolism of mavacamten [1]: 74%
- β-AR induced acceleration of tau ([2]; at any given dP/dtmax gain): enhanced the β-AR induced acceleration of tau
- dobutamine-triggered stroke-volume/cardiac output recruitments ([2]; before (control) vs under acute mavacamten treatment): comparable stroke-volume/cardiac output recruitments
- β-AR elevations in dP/dtmax and CI ([2]; dobutamine challenge): blunted β-AR elevations in dP/dtmax and CI
- clearance and terminal half-life by phenotype ([3]; CYP2C19 poor metabolizers vs other patients (UM, EM and IM)): lower clearance and longer terminal half-life
- increase in exposure ([3]; PM genotype compared to normal CYP 2C19 metabolizer (NM) genotype): approximately 4 fold
- effect of CYP3A4/5 (CYP3A5) and CYP2C9 polymorphisms on pharmacokinetics (half-life, clearance rate) ([3]; human, in vivo): insignificant effects; also recorded: did not have a significant effect
- half-life [3, 5]: 6 to 9 days
- clearance [3, 5]: 10 to 100 mL/min
- half-life [3, 6]: 12 to 30 days
- clearance [3, 6]: < 15 mL/min
- percent contribution to the metabolism of mavacamten [4]: 7.5%
